Data on 2 compounds can be found in paper PMC5913239, “Targeting GLP-1 receptor trafficking to improve agonist efficacy” (Nature Communications, 2018).

The subject of one assay is INS-1 832/3 cells. Kind of assay: Insulin secretion in INS-1 832/3 beta cells. It counts as cell-based, rat. The settings on record: INS-1 832/3, 16 h.
The target in assay [1] is T1, SNAP-GLP-1R (Homo sapiens, UniProt P43220). Kind of assay: Competitive association kinetics (TR-FRET, competition with exendin-4-FITC), CHO-SNAP-GLP-1R cells. It counts as binding.
T1 sequence (P43220 24-463): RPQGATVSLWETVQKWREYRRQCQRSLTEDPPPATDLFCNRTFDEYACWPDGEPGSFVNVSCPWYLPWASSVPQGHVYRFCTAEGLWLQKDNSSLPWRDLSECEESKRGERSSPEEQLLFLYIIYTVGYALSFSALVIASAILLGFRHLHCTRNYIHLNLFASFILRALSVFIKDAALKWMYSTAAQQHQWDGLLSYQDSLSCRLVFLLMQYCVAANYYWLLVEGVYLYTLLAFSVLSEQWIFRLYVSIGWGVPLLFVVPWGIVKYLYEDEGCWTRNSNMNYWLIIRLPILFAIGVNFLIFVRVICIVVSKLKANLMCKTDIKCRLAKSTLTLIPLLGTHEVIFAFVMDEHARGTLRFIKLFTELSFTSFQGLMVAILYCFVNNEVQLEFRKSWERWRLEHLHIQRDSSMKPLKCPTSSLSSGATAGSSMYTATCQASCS
Method: Association and dissociation rate constants were calculated using the kinetics of competitive binding algorithm in GraphPad Prism[43].
Assay [2] has as its target T1, SNAP-GLP-1R. The assay can be described thus: GLP-1R recycling, plate reader surface labeling, CHO-SNAP-GLP-1R cells. Format: cell-based.
Method: (§1) GLP-1R internalization and recycling in CHO-SNAP-GLP-1R cells was measured by surface labeling with anti-GLP-1R antibody or the SNAP-tag probe Lumi4-Tb (Cisbio). […] Residual surface expression was determined from peptide- vs. control-treated wells.
Assay [3] deals with T2, GLP-1R (Homo sapiens, UniProt P43220). The assay can be described thus: Agonist-induced GLP-1R internalization (cell surface receptor loss), post-stimulation Lumi4-Tb surface labeling, CHO-SNAP-GLP-1R cells. Format: cell-based. The settings on record: ± 3 μM BETP, 30 min, 100 nM exendin-4, n=4.
T2 sequence (P43220 24-463): as above
Method: as §1
Assay [4] addresses T2, GLP-1R. Kind of assay: cAMP accumulation (HTRF) in PathHunter CHO-GLP-1R cells. Format: cell-based. Set-up: host or cells: PathHunter CHO-K1 reporter cells (purchased cell lines). The settings on record: ± 3 μM BETP, n=3. On the technique in general: Changes in cAMP serve as a functional read-out for many G protein-coupled receptors.
Method: Cyclic AMP accumulation was determined by HTRF (cAMP Dynamic 2, Cisbio). CHO-SNAP-GLP-1R were stimulated at 37 °C in serum-free DMEM. For dose responses, a full GLP-1 curve was included to establish the assay Emax with curve fitting to a four-parameter fit.
Assay [5] addresses T2, GLP-1R. Kind of assay: β-arrestin-2 recruitment, PathHunter CHO-GLP-1R cells. It counts as cell-based. More on the design: host or cells: PathHunter CHO-K1 reporter cells (purchased cell lines). The settings on record: ± 3 μM BETP, n=3. In general terms: Arrestin recruitment assays detect the binding of arrestin to an activated receptor.
From the text: A full GLP-1 dose response was included to establish the assay Emax.

Method for INS-1 832/3 cells: Cells were pre-incubated overnight in 3 mM glucose medium.
For human islets, acute incubations were performed in KHB buffer at the indicated concentration of glucose ± agonist[28]. Overnight incubations were performed in complete RPMI plus 11 mM glucose ± 100 nM agonist. Samples were obtained for secreted and, where indicated, total insulin, and analyzed by HTRF (Cisbio). Percentage of release was calculated, and agonist-stimulated results expressed relative to 11 mM glucose alone as insulin stimulation index.

Consider Dulaglutide, for which the “prolonged insulin secretion, comparison with licensed GLP-1R agonists” value in the assay with INS-1 832/3 cells (100 nM, tested in parallel, n=6) is listed as “closest to ex-phe1”. Besides, in the assay with SNAP-GLP-1R [1] (CHO-SNAP-GLP-1R, normalized to exendin-4-FITC response per assay, n=5), the “agonist residence time (comparison in words)” value is reported as “shorter than other compounds”. Besides, in the assay with SNAP-GLP-1R [2] (100 nM, 60 min, with 10 μM exendin(9-39), n=5), the “GLP-1R recycling (comparison in words)” value is reported as “modestly increased recycling”.
Regarding `CC[S+]([O-])c1nc(-c2cccc(OCc3ccccc3)c2)cc(C(F)(F)F)n1` (stereo not shown) [BETP, 4-(3-(benzyloxy)phenyl)-2-(ethylsulfinyl)-6-(trifluoro-methyl)pyrimidine], the “effect on exendin-4-induced internalization” value on GLP-1R [3] is listed as “minimal effect”. The “effect on exendin-4-induced prolonged insulin secretion” value with INS-1 832/3 cells (± 3 µM BETP, n=5) is reported as “reduced”. For the same compound, on SNAP-GLP-1R [1] (± 10 μM BETP, n=4), the “effect on exendin-4 association rate” value is “without changes” and the “effect on exendin-4 residence time” value is recorded as “increased”. In addition, the “effect on GLP-1R recycling after exendin-4 exposure” value at SNAP-GLP-1R [2] (± 3 μM BETP, 60 min recycling, 100 nM exendin-4, n=4) is “slowed”. Further, the “effect on exendin-4 cAMP response” value at GLP-1R [4] is recorded as “did not affect”. Besides, on GLP-1R [5], the “effect on exendin-4 β-arrestin-2 recruitment response” value was “did not affect”.
